“Also recorded” adds a separate entry of the source.

In data set [1] the test system is HeLaS3-Gluc cells. Briefly: Gluc expression of HeLaS3-Gluc cells treated with amiloride, with or without ER stressors. The format is cell-based, human. How it is done: (§1) HeLaS3-Gluc cells were plated at 10K/well and incubated overnight. Subsequently, they were pre-treated with amiloride and incubated for 1 hour. Amiloride was used at increasing doses, both alone and in the presence of cellular stressors tunicamycin or thapsigargin. When the ER stressors were included, incubation was for 2 hours, at which time Gluc was measured. The media was then changed, and amiloride and ER stressors were added again. This time incubation was overnight. The media was again changed and the amount of Gluc made was measured after two hours. Amiloride was used in amounts of 0-500 μM. Tunicamycin was used in an amount of 5 μM. Thapsigargin was used in an amount of 2 μM.

For data set [2], the system named is HeLaS3-Gluc cells. Briefly: Viability of HeLaS3-Gluc cells treated with amiloride, with or without ER stressors. Format: cell-based, human. How it is done:
as §1

Setting [3] is: amiloride alone, 0-500 μM, no stress, normalized to no amiloride at 18 hours (FIG. 1).

For `N=C(N)NC(=O)c1nc(Cl)c(N)nc1N` [amiloride, 3,5-diamino-6-chloro-N-(diaminomethylene) pyrazine 2-carboxamide], in data set [1] (amiloride 0-500 μM with tunicamycin 5 μM or thapsigargin 2 μM, 18 hours (FIG. 3)), the “Gluc expression (luciferase output) under ER stress” value is given as “rescued by treatment with an increasing amount of amiloride; also recorded: can restore Gluc expression”. Moreover, the “Gluc expression (luciferase output) of unstressed cells” value in data set [1] (setting [3]) is on record as “did not lead to increased luciferase output”. In addition, the “cell viability under ER stress” value in data set [2] (amiloride 0-500 μM with tunicamycin 5 μM or thapsigargin 2 μM, normalized to no stress at 18 hours (FIG. 2)) is reported as “does not have an additional effect on cell viability”. The “viability of unstressed cells” value in data set [2] (setting [3]) is given as “decrease in viability”.

The values above are taken from patent US20140066595A1, “Modulators of Protein Production in a Human Cell Line and Cell-free Extracts Produced Therefrom” (THERMO FISHER SCIENTIFIC BIOSCIENCES INC., priority 2012, published 2014).
